From US4459241A, “Compounds containing quaternary ammonium and methylenephosphonic acid groups” (The Dow Chemical Company, priority 1983, dated 1984) come the findings set out here.

A short description of this assay: scale inhibition test with respect to calcium carbonate (soluble calcium retained, 24 h at 80° C.). As to conditions: 10 ppm based on active acid, 0.02M CaCl2 + 0.04M sodium bicarbonate/0.96M sodium chloride, 24-hour period, blank 12%. The format is physicochemical.

Protocol: To these solutions is added the candidate inhibitor in various concentrations. Fifty-ml samples of a 0.04M sodium bicarbonate/0.96M sodium chloride solution are then added with stirring. A total hardness determination is made on the mixture by adding excess standard EDTA to a sample and back titrating with standard Mg^++ solution in the presence of Eriochrome Black T indicator. The samples are placed in an 80° C. oven and 10-ml samples taken periodically from each bottle, filtered through a millipore filter, and the total hardness of the filtrates determined by titration. A blank with no inhibitor is run in an identical manner. The relative inhibition effects are shown by determining the amount of hardness (as soluble calcium) before and after heating for a 24-hour period. The amount of soluble calcium as a percent of that originally present is indicated as % inhibition.
All products and comparative runs were made using a concentration of 10 ppm based on active acid.

With `C[N+](C)(C)CC(O)CN(CCN(CP(=O)(O)O)CP(=O)(O)O)CP(=O)(O)O` (stereo not shown) [Product Ex. 1], the “% Inhibition (amount of soluble calcium as a percent of that originally present)” value stood at 41.8%.
